Results: ChEMBL document CHEMBL1201862, “PubChem BioAssay data set” (2004)
The source made the active and inactive calls.

Experiments:
HEK293 [1] = assay: cells; assay type: functional, cell-based; details: Homo sapiens
[2] = target: Nuclear receptor subfamily 0 group B member 1 (Homo sapiens, UniProt P51843); assay: Luminescence-based cell-based high throughput dose response assay for inhibitors of the orphan nuclear receptor subfamily 0, group B, member 1 (DAX1; NR0B1). [Related pubchem assays (depositor defined):AID504766, AID504790]; assay type: functional
Phosphomannomutase 2 = Phosphomannomutase 2 (Homo sapiens, UniProt O15305); assay: Counter screen SAR assay for PMM2 inhibitors via a fluorescence intensity assay. [Related pubchem assays (depositor defined):AID1545, AID1574]
[3] = target: T1, Mannose-6-phosphate isomerase (Homo sapiens, UniProt P34949); assay: PMI enzyme inhibitors, confirmation, biochemical, fluorescence intensity (AID 1535)
T1 sequence (P34949 whole entry): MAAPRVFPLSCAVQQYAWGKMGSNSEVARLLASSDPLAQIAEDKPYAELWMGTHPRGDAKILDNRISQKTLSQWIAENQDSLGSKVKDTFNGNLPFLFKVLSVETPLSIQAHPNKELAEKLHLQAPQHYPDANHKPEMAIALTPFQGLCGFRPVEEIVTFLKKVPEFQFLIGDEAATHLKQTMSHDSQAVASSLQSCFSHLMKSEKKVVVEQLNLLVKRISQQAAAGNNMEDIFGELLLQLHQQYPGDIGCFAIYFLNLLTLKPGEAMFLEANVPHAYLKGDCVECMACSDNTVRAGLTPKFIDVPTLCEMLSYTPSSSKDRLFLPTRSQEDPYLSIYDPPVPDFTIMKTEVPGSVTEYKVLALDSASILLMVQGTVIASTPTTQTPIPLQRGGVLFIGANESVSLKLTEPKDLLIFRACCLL

HeLa = assay: HeLa cell cytotoxicity, dose response, cytotoxicity control for MITF activator project, CellTiter-Glo luminescence, cherry-pick samples (AID 540259); assay type: functional, cell-based; details: Homo sapiens
[4] = Luminescence Cell-Based Dose Confirmation HTS to Identify Activators of 5'UTR Stem-Loop Driven Alpha-Synuclein mRNA Translation in H4 Neuroglioblastoma Cells. [Related pubchem assays: 1829 (Project Summary), 1814 (Primary HTS)]; assay type: functional
H4 = assay: Luminescence Cell-Based Dose Response HTS to Identify Activators of 5'UTR Stem-Loop Driven Prion Protein mRNA Translation in H4 Neuroglioblastoma Cells. [Related pubchem assays: 1829 (Project Summary), 1814 (Primary HTS)]; assay type: functional; details: Homo sapiens
[5] = Luminescence Cell-Based Dose Response HTS to Identify Activators of Luciferase Translation or Activity in H4 […] Cells. [Related pubchem assays: 1829 (Project Summary), 1814 (Primary HTS)]; assay type: functional
[6] = target: T2, Voltage-gated N-type calcium channel alpha-1B subunit/Amyloid beta A4 precursor protein-binding family A member 1 (Homo sapiens, UniProt Q00975+Q02410); assay: disruptors of Mint-PDZ/N-type channel peptide interaction – biochemical, HTRF, SAR follow-up (AID 2489); assay type: functional
SUMO E1/E2 = SUMO E1/E2 (Homo sapiens, UniProt P63279+Q9UBE0+Q9UBT2); assay: SAR analysis of SUMOylation using HTRF in an in-Vitro dose response assay. [Related pubchem assays (depositor defined):AID2006, AID2011, AID2018, AID2069, AID2658]; assay type: functional
[7] = target: T2, Voltage-gated N-type calcium channel alpha-1B subunit/Amyloid beta A4 precursor protein-binding family A member 1; assay: disruptors of Mint-PDZ/N-type channel peptide interaction – biochemical, HTRF, set 2, SAR follow-up (AID 434980); assay type: functional
Estrogen receptor beta [8] = target: T3, Estrogen receptor beta (Homo sapiens, UniProt Q92731); assay: ERβ–SRC-3 coactivator interaction inhibitors, confirmation, orthogonal assay, biochemical, ELISA, streptavidin-HRP readout (AID 1060)
Estrogen receptor beta [9] = target: T3, Estrogen receptor beta
CAAX prenyl protease 2 = CAAX prenyl protease 2 (Homo sapiens, UniProt Q9Y256); assay: human Rce1 protease inhibitors, dose response, biochemical, yeast membranes, quenched-peptide fluorescence, cherry-pick (AID 588849)
INS1 [10] = assay: protection of INS-1E cells from cytokine death, dose response, ATP luminescence, dry powder (AID 488844); assay type: functional, cell-based; details: Rattus norvegicus
INS1 [11] = assay: protection from cytokine-induced mitochondrial depolarization, dose response, cell-based, INS-1E, JC-1 fluorescence ratio, dry powder (AID 488931); assay type: functional; details: Rattus norvegicus
INS1 [12] = assay: caspase-3/7 inhibition in cytokine-treated INS-1E, dose response, beta-cell apoptosis inhibitor project, cell-based, caspase luminescence, dry powder (AID 488848); assay type: functional; details: Rattus norvegicus
[13] = target: Nucleotide-binding oligomerization domain-containing protein 1 (Homo sapiens, UniProt Q9Y239); assay: NOD1 signaling inhibitors, SAR follow-up, revised (AID 2333); assay type: functional
HEK293 [14] = assay: cells; assay type: functional, cell-based; details: Homo sapiens; remark: listed apart in the source
Tumor necrosis factor = Tumor necrosis factor (Homo sapiens, UniProt P01375); assay: TNFa-triggered NF-kB activation inhibitors, SAR follow-up, cell-based, revised (AID 2337); assay type: functional
H9c2 = assay: cells; assay type: functional, cell-based; details: Rattus norvegicus, H9c2, Myocardium
[15] = target: Nucleotide-binding oligomerization domain-containing protein 2 (Homo sapiens, UniProt Q9HC29); assay: NOD2 signaling inhibitors, cell-based, luminescence, uHTS, HEK293 (AID 1566); assay type: functional
HEK293 [16] = assay: NOD2 signaling inhibitors in MDP-stimulated cells, cell-based, uHTS, luminescence (AID 2001); assay type: functional; details: Homo sapiens
HEK293 [17] = assay: cells; assay type: functional, cell-based; details: Homo sapiens; remark: listed apart in the source
HEK293 [18] = assay: cells; details: Homo sapiens
HEK293 [19] = assay: NOD1 signaling inhibitors, primary screen, cell-based, luminescence, uHTS (AID 1578); assay type: functional; details: Homo sapiens
HEK293 [20] = assay: cells; assay type: functional, cell-based; details: Homo sapiens; remark: listed apart in the source
Cytochrome P450 2D6 = Cytochrome P450 2D6 (Homo sapiens, UniProt P10635);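 also: CYP2D6 member of a cytochrome P450 panel assay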
Cytochrome P450 2C9 = Cytochrome P450 2C9 (Homo sapiens, UniProt P11712)
Cytochrome P450 2C19 = Cytochrome P450 2C19 (Homo sapiens, UniProt P33261); assay: Cytochrome panel assay with activity outcomes. Panel member name: p450-cyp2c19 Compounds with AC50 equal or less than 10 uM are considered active; assay type: functional
Cytochrome P450 3A4 = Cytochrome P450 3A4 (Homo sapiens, UniProt P08684);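 also: CYP3A4 tested as one member of a cytochrome P450 panel screen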
Cytochrome P450 1A2 = target: T4, Cytochrome P450 1A2 (Homo sapiens, UniProt P05177);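 also: PubChem cytochrome P450 panel assay, CYP1A2 panel member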
T4 sequence (P05177 whole entry): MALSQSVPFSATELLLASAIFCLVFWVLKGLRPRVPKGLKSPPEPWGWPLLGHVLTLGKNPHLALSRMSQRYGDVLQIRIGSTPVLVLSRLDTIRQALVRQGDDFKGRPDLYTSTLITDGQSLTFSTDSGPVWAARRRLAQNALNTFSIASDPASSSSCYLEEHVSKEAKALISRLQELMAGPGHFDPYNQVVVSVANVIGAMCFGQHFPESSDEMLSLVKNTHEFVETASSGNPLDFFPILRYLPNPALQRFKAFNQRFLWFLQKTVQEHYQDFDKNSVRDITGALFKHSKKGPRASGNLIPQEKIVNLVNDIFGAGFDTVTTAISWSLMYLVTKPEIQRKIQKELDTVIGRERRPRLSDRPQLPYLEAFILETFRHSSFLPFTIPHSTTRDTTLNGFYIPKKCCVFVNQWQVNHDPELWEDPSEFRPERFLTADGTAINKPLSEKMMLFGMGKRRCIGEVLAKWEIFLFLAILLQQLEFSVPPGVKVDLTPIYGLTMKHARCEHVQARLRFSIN

[21] = Luminescence Cell-Based Dose Retest to Confirm Inhibitors of Cancer Stem Cells. [Related pubchem assays (depositor defined):AID2717, AID2721]; assay type: functional; details: Homo sapiens
INS1 [22] = assay: beta cell apoptosis inhibitors, cytokine rescue, dose response, luminescence, retest (AID 449756); assay type: functional, cell-based; details: Rattus norvegicus;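 also: cell death triggered by IL-1 beta plus TNF-alpha plus IFN-gamma mixture; protective hits raise ATP signal compared with cytokine alone wells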
[23] = cytotoxicity in HMLE control line with eGFP shRNA, dose response, counter-screen for HMLE_sh_ECad selective toxicity project, cell-based, HMLE_sh_eGFP, luminescence (AID 463074); assay type: functional, Homo sapiens;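 also: HMLE human mammary epithelial cells expressing control shRNA against eGFP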
[24] = target: T2, Voltage-gated N-type calcium channel alpha-1B subunit/Amyloid beta A4 precursor protein-binding family A member 1; assay type: protein assay
[25] = target: T5, Apoptotic protease-activating factor 1 (Homo sapiens, UniProt O14727); assay: activation of Apaf-1 mediated apoptosis – fluorescent, uHTS hits, dose response (AID 588554); assay type: functional
T5 sequence (O14727 whole entry): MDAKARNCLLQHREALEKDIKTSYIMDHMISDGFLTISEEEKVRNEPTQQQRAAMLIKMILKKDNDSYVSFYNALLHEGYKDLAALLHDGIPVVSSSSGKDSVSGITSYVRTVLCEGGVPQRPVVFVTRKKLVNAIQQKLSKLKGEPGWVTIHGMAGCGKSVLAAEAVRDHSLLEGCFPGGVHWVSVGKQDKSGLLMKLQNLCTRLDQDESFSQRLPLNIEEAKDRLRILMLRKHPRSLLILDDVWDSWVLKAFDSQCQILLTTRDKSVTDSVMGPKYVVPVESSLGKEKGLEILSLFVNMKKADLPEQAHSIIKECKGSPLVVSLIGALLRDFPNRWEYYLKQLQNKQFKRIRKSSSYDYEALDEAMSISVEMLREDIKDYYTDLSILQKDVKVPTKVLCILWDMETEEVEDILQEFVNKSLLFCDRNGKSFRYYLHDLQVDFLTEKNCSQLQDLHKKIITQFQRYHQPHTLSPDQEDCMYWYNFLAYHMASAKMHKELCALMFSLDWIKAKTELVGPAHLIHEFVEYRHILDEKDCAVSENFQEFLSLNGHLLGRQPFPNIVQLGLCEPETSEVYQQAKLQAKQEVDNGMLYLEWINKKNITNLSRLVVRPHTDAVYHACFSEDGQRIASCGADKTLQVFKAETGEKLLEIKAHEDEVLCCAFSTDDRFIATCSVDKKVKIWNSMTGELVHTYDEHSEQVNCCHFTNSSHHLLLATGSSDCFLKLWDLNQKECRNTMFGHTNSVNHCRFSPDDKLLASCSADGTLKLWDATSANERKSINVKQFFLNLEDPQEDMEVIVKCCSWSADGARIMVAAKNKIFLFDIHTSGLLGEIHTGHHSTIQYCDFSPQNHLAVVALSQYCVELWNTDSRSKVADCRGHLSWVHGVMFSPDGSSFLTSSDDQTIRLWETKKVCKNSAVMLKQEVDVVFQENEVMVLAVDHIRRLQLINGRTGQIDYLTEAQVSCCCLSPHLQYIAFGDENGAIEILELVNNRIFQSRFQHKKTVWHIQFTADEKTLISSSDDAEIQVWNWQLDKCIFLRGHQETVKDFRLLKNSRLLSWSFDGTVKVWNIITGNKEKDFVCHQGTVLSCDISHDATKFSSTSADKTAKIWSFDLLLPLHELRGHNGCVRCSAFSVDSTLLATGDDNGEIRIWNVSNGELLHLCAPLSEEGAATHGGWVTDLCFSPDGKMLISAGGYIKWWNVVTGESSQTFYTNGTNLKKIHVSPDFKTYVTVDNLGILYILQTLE

[26] = target: T2, Voltage-gated N-type calcium channel alpha-1B subunit/Amyloid beta A4 precursor protein-binding family A member 1; assay type: protein assay; remark: listed apart in the source
[27] = target: Beta-adrenergic receptor kinase 1 (Homo sapiens, UniProt P25098); assay: aptamer displacement from bead-bound GRK2 – biochemical, cherry pick 1, bead flow cytometry, dose response (AID 504500)

T2 sequence (Q00975 whole entry): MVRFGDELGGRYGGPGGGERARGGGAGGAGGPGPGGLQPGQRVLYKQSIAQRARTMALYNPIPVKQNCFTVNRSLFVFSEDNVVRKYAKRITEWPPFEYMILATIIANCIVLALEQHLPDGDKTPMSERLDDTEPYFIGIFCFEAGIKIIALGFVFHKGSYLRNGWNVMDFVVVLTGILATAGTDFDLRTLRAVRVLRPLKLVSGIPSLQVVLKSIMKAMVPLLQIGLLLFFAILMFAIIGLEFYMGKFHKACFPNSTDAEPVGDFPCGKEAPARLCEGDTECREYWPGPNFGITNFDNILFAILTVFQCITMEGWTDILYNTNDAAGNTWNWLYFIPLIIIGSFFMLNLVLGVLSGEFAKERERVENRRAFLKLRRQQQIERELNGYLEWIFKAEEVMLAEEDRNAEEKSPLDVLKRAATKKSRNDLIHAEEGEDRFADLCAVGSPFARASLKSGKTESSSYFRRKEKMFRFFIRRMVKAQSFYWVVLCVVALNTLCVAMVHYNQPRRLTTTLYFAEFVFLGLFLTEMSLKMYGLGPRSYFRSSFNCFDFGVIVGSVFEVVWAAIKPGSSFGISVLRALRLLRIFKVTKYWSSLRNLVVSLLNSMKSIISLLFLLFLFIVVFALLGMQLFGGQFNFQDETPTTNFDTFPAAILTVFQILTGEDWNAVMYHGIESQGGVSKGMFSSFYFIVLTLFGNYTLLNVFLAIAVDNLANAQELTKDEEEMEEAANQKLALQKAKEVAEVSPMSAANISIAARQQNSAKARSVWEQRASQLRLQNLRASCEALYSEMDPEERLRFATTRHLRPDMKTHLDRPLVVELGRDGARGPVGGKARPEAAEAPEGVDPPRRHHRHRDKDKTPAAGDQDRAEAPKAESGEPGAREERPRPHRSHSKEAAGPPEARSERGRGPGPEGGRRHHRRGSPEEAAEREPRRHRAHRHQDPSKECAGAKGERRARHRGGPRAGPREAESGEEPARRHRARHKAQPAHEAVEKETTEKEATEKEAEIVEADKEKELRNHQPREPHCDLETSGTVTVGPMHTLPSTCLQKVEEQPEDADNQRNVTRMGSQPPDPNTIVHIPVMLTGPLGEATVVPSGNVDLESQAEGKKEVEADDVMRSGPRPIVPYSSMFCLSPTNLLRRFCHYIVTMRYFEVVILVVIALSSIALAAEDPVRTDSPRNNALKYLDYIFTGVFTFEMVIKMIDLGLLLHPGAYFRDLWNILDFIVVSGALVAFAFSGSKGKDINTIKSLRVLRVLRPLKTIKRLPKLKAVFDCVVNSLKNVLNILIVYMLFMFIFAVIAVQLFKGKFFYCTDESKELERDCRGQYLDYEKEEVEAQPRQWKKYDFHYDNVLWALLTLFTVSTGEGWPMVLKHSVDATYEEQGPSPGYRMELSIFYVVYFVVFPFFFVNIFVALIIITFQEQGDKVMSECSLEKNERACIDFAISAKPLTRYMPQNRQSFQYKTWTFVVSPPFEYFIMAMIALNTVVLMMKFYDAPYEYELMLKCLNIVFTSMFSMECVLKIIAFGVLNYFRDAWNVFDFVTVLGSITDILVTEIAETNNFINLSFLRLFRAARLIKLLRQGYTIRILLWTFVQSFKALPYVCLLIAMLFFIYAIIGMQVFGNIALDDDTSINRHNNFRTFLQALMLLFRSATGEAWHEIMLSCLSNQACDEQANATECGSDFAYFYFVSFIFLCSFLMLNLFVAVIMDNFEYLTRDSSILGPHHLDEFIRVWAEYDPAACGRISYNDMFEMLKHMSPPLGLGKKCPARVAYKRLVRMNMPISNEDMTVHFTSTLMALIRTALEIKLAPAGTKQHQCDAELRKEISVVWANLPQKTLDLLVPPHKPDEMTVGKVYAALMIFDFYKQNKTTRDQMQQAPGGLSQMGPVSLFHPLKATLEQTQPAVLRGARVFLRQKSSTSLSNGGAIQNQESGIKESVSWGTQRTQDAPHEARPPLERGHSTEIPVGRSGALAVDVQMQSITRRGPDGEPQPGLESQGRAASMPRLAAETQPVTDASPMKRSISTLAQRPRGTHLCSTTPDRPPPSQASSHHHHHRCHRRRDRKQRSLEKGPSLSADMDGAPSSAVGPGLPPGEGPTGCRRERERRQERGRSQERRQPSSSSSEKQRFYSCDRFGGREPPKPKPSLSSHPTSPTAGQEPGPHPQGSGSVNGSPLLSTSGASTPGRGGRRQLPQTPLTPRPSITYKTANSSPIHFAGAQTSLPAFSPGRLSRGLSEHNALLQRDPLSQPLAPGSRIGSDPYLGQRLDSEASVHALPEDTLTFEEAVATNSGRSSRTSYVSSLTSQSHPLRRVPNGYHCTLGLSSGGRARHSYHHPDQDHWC
T2 sequence (Q02410 whole entry): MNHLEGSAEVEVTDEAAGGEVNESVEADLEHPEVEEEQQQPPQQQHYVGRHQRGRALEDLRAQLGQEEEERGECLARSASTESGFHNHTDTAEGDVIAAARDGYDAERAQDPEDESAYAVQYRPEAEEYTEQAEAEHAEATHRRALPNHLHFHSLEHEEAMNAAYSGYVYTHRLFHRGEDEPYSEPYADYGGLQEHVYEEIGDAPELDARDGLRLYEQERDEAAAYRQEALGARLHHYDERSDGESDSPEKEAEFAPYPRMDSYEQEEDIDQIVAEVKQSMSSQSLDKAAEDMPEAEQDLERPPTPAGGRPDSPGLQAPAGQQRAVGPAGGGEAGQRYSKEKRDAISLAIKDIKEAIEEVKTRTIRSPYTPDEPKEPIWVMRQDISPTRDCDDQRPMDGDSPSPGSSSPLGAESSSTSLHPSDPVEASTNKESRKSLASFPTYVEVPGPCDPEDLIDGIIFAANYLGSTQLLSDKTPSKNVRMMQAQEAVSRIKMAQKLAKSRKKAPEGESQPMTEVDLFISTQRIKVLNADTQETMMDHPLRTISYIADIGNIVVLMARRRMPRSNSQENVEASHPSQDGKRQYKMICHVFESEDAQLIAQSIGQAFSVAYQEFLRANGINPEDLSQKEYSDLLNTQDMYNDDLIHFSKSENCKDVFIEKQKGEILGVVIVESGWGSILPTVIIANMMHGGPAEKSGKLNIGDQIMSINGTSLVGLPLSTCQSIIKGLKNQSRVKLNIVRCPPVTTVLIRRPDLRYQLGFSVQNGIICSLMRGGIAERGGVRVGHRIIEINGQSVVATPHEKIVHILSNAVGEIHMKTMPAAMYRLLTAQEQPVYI
T3 sequence (Q92731 whole entry): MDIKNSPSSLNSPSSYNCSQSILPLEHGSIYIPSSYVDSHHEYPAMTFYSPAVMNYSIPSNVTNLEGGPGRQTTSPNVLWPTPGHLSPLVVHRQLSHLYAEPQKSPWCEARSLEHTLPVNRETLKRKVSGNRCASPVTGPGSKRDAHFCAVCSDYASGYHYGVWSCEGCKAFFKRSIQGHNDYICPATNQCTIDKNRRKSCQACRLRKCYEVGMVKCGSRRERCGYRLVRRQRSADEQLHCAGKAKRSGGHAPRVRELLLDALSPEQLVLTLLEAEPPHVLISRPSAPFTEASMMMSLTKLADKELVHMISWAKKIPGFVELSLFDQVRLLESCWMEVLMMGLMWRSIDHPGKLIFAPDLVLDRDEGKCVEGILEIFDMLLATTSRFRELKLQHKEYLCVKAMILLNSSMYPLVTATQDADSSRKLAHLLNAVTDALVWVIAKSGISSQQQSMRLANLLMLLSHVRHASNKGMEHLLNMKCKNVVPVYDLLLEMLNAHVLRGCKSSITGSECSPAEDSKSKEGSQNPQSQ
Chain of Tumor necrosis factor (P01375 whole entry): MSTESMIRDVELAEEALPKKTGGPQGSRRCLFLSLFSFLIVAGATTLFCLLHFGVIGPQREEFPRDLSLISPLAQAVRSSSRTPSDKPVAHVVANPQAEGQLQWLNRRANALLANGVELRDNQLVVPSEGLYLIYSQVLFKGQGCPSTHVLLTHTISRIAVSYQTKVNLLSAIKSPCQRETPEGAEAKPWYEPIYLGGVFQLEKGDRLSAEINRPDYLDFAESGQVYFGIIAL
Chain of Nuclear receptor subfamily 0 group B member 1 (P51843 whole entry): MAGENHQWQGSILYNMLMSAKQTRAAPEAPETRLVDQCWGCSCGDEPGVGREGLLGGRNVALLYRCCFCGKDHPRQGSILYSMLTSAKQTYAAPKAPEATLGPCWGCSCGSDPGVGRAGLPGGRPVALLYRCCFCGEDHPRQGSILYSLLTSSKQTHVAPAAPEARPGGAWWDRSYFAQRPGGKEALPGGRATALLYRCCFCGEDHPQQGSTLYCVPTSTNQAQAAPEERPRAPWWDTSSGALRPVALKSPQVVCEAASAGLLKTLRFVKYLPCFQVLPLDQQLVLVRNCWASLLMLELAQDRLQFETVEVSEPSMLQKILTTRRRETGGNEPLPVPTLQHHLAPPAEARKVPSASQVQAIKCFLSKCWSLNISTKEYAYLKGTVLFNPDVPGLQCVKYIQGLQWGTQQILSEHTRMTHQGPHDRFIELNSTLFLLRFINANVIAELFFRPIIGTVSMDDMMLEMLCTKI
Chain of Cytochrome P450 2C9 (P11712 whole entry): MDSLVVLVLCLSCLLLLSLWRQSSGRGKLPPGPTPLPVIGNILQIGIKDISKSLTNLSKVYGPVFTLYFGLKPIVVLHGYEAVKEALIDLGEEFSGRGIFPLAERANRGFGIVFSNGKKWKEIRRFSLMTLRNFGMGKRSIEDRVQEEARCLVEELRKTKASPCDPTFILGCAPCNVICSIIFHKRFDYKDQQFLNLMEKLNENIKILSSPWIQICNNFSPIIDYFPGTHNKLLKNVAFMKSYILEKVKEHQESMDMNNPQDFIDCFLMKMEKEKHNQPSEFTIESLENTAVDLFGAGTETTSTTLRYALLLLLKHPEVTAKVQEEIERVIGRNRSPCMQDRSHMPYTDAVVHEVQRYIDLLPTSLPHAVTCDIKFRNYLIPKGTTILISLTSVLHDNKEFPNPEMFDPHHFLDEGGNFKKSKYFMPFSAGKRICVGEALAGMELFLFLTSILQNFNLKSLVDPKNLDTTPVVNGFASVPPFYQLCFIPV

## CCOc1ccc2nc(NS(=O)(=O)Cc3ccccc3)sc2c1
HEK293 [1]
  IC50: > 67.5 µM (inactive)
[2]
  IC50: > 67.5 µM (inactive)

## Clc1nss/c1=N\c1nc2ccccc2s1
Phosphomannomutase 2
  IC50: > 100 µM (inactive)
[3]
  IC50: > 100 µM (inactive)

## COc1ccc(/C(O)=C/C=N/c2cccc(C)n2)cc1OC
HeLa
  AC50: 50.8 µM (active)
[4]
  EC50: 0.146 µM (active)
H4
  EC50: 48.3 µM (active)
[5]
  EC50: 0.122 µM (active)

## COc1ccc(CNC(=O)COC(=O)c2cc(-c3ccco3)nc3ccccc23)cc1
[6]
  IC50: > 56.8 µM (inactive)
SUMO E1/E2
  IC50: 6.59 µM (active)
[7]
  IC50: 11.4 µM (active)
Estrogen receptor beta [8]
  IC50: > 50 µM (not active)
Estrogen receptor beta [9]
  IC50: < 1.56 µM (active)

## COc1cccc(/C=C/C(=O)OCC(=O)Nc2ccc(Cl)c(S(=O)(=O)N(C)C)c2)c1OC
CAAX prenyl protease 2
  AC50: 20.9 µM (active)

## C[C@@H]1CN([C@@H](C)CO)C(=O)c2cccc(NC(=O)Nc3ccc(F)cc3)c2O[C@H]1CN(C)S(=O)(=O)c1ccc(F)cc1
INS1 [10]
  AC50: 72 µM (active)
INS1 [11]
  AC50: 63.3 µM (active)
INS1 [12]
  AC50: > 195 µM (inactive)

## Cc1c(O)ccc2c(-c3ccccc3)cc(=O)oc12
[13]
  IC50: 6.53 µM (active)
HEK293 [14]
  IC50: > 20 µM (inactive)
Tumor necrosis factor
  IC50: 6.62 µM (active)
H9c2
  IC50: > 79 µM (inactive)
[15]
  EC50: 4.67 µM (active)
HEK293 [16]
  IC50: 6.85 µM (active)
HEK293 [17]
  IC50: > 20 µM (inactive)
HEK293 [18]
  IC50: > 20 µM (inactive)
HEK293 [19]
  EC50: 16.3 µM (active)
HEK293 [20]
  IC50: 5.78 µM (active)

## N#Cc1cccc(NC(=O)N2CC[C@@]3(CCCN(C(=O)Oc4ccccc4)C3)C2)c1
Cytochrome P450 2D6
  AC50: inconclusive
Cytochrome P450 2C9
  AC50: inconclusive
Cytochrome P450 2C19
  AC50: inconclusive
Cytochrome P450 3A4
  AC50: 2.51 µM (inconclusive)
Cytochrome P450 1A2
  AC50: inconclusive

## C=CC[n+]1c(-c2ccc(OCC)cc2)csc1NNC(=O)Nc1ccccc1
[21]
  AC50: 88.4 µM (active)
INS1 [22]
  AC50: 6.63 µM (active)
[23]
  AC50: 24.7 µM (active)

## O=C(CCS(=O)(=O)c1ccc(Br)cc1)NCc1ccco1
[24]
  IC50: > 50 µM (inactive)
[25]
  EC50: 23.4 µM (active)
[26]
  IC50: 12.1 µM (active)

## CCCC[N+](C)(C)CCC(=O)NC(C)(C)CS(=O)(=O)[O-]
[27]
  EC50: 4.53 µM (active)
